Measurements from patent US11345699B2, “Apoptosis signal-regulating kinase 1 inhibitors and methods of use thereof” (Enanta Pharmaceuticals, Inc., priority 2018, dated 2022).

Each compound was assayed against ASK1 (Homo sapiens (Human), UniProt Q99683) (assay: HTRF KinEASE Assay (TR-FRET), inhibition of ASK1). Conditions: ASK1 kinase, 100 μM ATP, 1 μM STK3 peptide substrate, compound 0 to 10 μM.
Type: biochemical
Protocol: Assay HTRF® KinEASE™ Assay
ASK1 was purchased from Thermofisher (Catalogue #PV4011), ATP was purchased from Sigma (Catalogue #A7699), HTRF® KinEASE™ Assay System was obtained from Cisbio (Bedford, Mass.). ½ Area plate was purchased from Perkin Elmer (Catalogue ##6005560). HTRF® KinEASE™-STK is a generic method for measuring serine/threonine kinase activities using a time-resolved fluorescence resonance energy transfer (TR-FRET) immunoassay. The IC50 value for each compound was determined in the presence of compound (various concentration from 0 to 10 μM) and a fixed amount of ATP and peptide substrates. The test compound, 1 μM STK3 peptide substrate, and […] of ASK1 kinase are incubated with kinase reaction buffer containing 50 mM HEPES Ph 7.5, 0.01% BRIJ-35, 10 mM MgCl2, and 1 mM EGTA for 30 minutes. 100 μM ATP is added to start kinase reaction and incubated for 3 hours. The STK3-antibody labeled with Eu^3+-Cryptate and 125 nM streptavidin-XL665 are mixed in a single addition with stop reagents provided by the Cisbio kit used to stop the kinase reaction. Fluorescence is detected using an Envision Multilabeled 2014 reader from PerkinElmer. The Fluorescence is measured at 615 nm (Cryptate) and 665 nm (XL665) and a ratio of 665 nm/615 nm is calculated for each well. The resulting TR-FRET is proportional to the phosphorylation level. Staurosporine was used as the positive control. IC50 was determined by Xlfit 5.3.
By using above method, the inhibition of ASK1 was evaluated for the compounds of Formula (I). Example numbers correspond to those in Table 5.

Sequence of ASK1 (Q99683 whole entry): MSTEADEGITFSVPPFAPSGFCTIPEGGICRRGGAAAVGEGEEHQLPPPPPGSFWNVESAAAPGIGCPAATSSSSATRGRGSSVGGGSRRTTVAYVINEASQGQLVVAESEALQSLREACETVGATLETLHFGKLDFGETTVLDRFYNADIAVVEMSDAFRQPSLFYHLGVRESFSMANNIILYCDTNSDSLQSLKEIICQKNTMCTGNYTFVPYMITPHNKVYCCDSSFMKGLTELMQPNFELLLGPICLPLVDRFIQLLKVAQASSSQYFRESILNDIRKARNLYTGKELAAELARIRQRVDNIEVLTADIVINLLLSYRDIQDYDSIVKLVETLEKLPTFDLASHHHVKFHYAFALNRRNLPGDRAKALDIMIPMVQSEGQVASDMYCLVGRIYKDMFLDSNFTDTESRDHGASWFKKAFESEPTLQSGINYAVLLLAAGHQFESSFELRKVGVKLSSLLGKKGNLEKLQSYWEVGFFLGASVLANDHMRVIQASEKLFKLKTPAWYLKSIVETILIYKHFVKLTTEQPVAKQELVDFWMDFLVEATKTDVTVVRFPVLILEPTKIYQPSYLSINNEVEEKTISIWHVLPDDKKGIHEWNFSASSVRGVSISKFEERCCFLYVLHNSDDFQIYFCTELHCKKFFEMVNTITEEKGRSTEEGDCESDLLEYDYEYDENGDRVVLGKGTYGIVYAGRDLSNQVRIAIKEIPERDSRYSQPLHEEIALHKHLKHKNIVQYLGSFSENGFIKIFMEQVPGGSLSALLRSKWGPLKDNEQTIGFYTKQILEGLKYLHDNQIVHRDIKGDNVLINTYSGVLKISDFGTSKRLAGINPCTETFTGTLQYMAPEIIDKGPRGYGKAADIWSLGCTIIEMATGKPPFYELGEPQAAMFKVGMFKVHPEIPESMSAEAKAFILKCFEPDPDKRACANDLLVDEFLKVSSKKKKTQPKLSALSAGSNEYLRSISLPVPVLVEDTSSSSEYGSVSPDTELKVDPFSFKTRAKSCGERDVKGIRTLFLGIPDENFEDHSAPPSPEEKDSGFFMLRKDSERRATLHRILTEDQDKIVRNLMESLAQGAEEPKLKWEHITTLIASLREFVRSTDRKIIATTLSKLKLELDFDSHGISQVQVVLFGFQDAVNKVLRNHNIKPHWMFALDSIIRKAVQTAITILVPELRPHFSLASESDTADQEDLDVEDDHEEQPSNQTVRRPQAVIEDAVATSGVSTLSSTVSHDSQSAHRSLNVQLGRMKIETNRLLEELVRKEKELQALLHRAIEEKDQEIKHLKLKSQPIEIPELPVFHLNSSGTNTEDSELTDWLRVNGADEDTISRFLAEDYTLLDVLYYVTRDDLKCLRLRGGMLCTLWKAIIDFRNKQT

| Structure (SMILES) | IC50 [µM] |
| --- | --- |
| CC(C)n1cnnc1-c1cccc(NC(=O)c2cc3c(cn2)CCN(S(=O)(=O)C2CC2)C3)n1 [Example 13, 6-(cyclopropylsulfonyl)-N-(6-(4-isopropyl-4H-1,2,4-triazol-3-yl)pyridin-2-yl)-5,6,7,8-tetrahydro-2,6-naphthyridine-3-carboxamide] | 0.00125 to 0.01 |
| C[C@H](CO)n1nnnc1-c1cccc(NC(=O)c2cc3c(cc2F)CCN(S(=O)(=O)Nc2ccc(F)cc2)C3)n1 [Example 136] | 0.01 to 0.1 |
| CCN1CCc2cc(F)c(C(=O)Nc3cccc(-c4nnnn4[C@H](C)CO)n3)cc2C1 [Example 138] | 0.1 to 1 |
| C[C@H](CO)n1nnnc1-c1cccc(NC(=O)c2cc3c(cc2F)CCN(C(=O)N2CCCCC2)C3)n1 [Example 116] | 0.00125 to 0.01 |
| COc1cc2c(cc1C(=O)Nc1cccc(-c3nnnn3[C@H](C)CO)n1)CN(C(=O)OC1CCOC1)CC2 (some centres unmarked) [Example 143] | 0.00125 to 0.01 |
| COCCOC(=O)N1CCc2cc(OC)c(C(=O)Nc3cccc(-c4nnnn4[C@H](C)CO)n3)cc2C1 [Example 96] | < 0.00125 |
| CCNS(=O)(=O)N1CCc2cc(F)c(C(=O)Nc3cccc(-c4nnnn4[C@H](C)CO)n3)cc2C1 [Example 118] | 0.00125 to 0.01 |
| COc1cc2c(cc1C(=O)Nc1cccc(-c3nnnn3[C@H](C)CO)n1)CN(C(=O)CN1CCOC1=O)CC2 [Example 149] | < 0.00125 |
| C[C@H](CO)n1nnnc1-c1cccc(NC(=O)c2cc3c(cc2F)CCN(S(=O)(=O)NC2CC2)C3)n1 [Example 117] | 0.01 to 0.1 |
| COc1cc2c(cc1C(=O)Nc1cccc(-c3nncn3C(C)C)n1)CN(C(=O)CN1CCOC1=O)CC2 [Example 148] | < 0.00125 |
| COc1cc2c(cc1C(=O)Nc1cccc(-c3nnnn3[C@H](C)CO)n1)CN(C(=O)c1cnccn1)CC2 [Example 112] | < 0.00125 |
| CCOC(=O)N1CCc2cc(OC)c(C(=O)Nc3cccc(-c4nncn4C(C)C)n3)cc2C1 [Example 17, ethyl 7-((6-(4-isopropyl-4H-1,2,4-triazol-3-yl)pyridin-2-yl)carbamoyl)-6-methoxy-3,4-dihydroisoquinoline-2(1H)-carboxylate] | 0.00125 to 0.01 |
| CCNC(=O)N1CCc2cc(F)c(C(=O)Nc3cccc(-c4nnnn4[C@H](C)CO)n3)cc2C1 [Example 111] | 0.00125 to 0.01 |
| COc1cc2c(cc1C(=O)Nc1cccc(-c3nncn3C(C)C)n1)CN(c1cncnc1)CC2 [Example 151, N-(6-(4-isopropyl-4H-1,2,4-triazol-3-yl)pyridin-2-yl)-6-methoxy-2-(pyrimidin-5-yl)-1,2,3,4-tetrahydroisoquinoline-7-carboxamide] | < 0.00125 |
| C[C@H](CO)n1nnnc1-c1cccc(NC(=O)c2cc3c(cc2F)CCN(S(=O)(=O)C2CC2)C3)n1 [Example 119] | 0.01 to 0.1 |
| COCCC(=O)N1CCc2cc(OC)c(C(=O)Nc3cccc(-c4nncn4C(C)C)n3)cc2C1 [Example 125] | < 0.00125 |
| C[C@H](CO)n1nnnc1-c1cccc(NC(=O)c2cc3c(cc2F)CCN(C(=O)NC2CC2)C3)n1 [Example 134] | 0.00125 to 0.01 |
| C[C@H](CO)n1nnnc1-c1cccc(NC(=O)c2cc3c(cn2)CCN(C(=O)c2cn(C4CC4)cn2)C3)n1 [Example 106] | 0.00125 to 0.01 |
| CCOC(=O)N1CCc2cc(F)c(C(=O)Nc3cccc(-c4nncn4[C@@H](C)CF)n3)cc2C1 [Example 107] | 0.00125 to 0.01 |
| COc1cc2c(cc1C(=O)Nc1cccc(-c3nnnn3[C@H](C)CO)n1)CN(C(=O)c1cc3ccccc3cn1)CC2 [Example 102] | 0.00125 to 0.01 |
| COc1cc2c(cc1C(=O)Nc1cccc(-c3nncn3C(C)C)n1)CN(C(=O)OC(C)(C)C)CC2 [Example 5, tert-butyl 7-((6-(4-isopropyl-4H-1,2,4-triazol-3-yl)pyridin-2-yl)carbamoyl)-6-methoxy-3,4-dihydroisoquinoline-2(1H)-carboxylate] | 0.01 to 0.1 |
| COc1cc2c(cc1C(=O)Nc1cccc(-c3nncn3C(C)C)n1)CN(C(=O)C(C)(C)O)CC2 [Example 129] | < 0.00125 |

| Structure (SMILES) | IC50 [µM] |
| --- | --- |
| COCCOC(=O)N1CCc2cc(F)c(C(=O)Nc3cccc(-c4nnnn4[C@H](C)CO)n3)cc2C1 [Example 110] | 0.01 to 0.1 |
| COc1cc2c(cc1C(=O)Nc1cccc(-c3nncn3C(C)C)n1)CN(C(=O)[C@@H](O)CC(C)C)CC2 [Example 128] | < 0.00125 |
| COc1cc2c(cc1C(=O)Nc1cccc(-c3nnnn3[C@H](C)CO)n1)CN(C(=O)N1CC[C@@H](O)C1)CC2 [Example 144, N-(6-(1-((R)-1-hydroxypropan-2-yl)-1H-tetrazol-5-yl)pyridin-2-yl)-2-((R)-3-hydroxypyrrolidine-1-carbonyl)-6-methoxy-1,2,3,4-tetrahydroisoquinoline-7-carboxamide] | < 0.00125 |
| CC(C)n1cnnc1-c1cccc(NC(=O)c2cc3c(cn2)CCN(S(=O)(=O)N(C)C)C3)n1 [Example 2, 6-(N,N-dimethylsulfamoyl)-N-(6-(4-isopropyl-4H-1,2,4-triazol-3-yl)pyridin-2-yl)-5,6,7,8-tetrahydro-2,6-naphthyridine-3-carboxamide] | 0.01 to 0.1 |
| C[C@H](CO)n1nnnc1-c1cccc(NC(=O)c2cc3c(cc2F)CCN(S(=O)(=O)c2ccc(F)cc2)C3)n1 [Example 137] | 0.01 to 0.1 |
| COc1cc2c(cc1C(=O)Nc1cccc(-c3nncn3C(C)C)n1)CN(C(=O)C(C)(C)CO)CC2 [Example 126, 2-(3-hydroxy-2,2-dimethylpropanoyl)-N-(6-(4-isopropyl-4H-1,2,4-triazol-3-yl)pyridin-2-yl)-6-methoxy-1,2,3,4-tetrahydroisoquinoline-7-carboxamide] | < 0.00125 |
| COc1cc2c(cc1C(=O)Nc1cccc(-c3nnnn3[C@H](C)CO)n1)CN(c1ncc(F)cn1)CC2 [Example 152, (R)-2-(5-fluoropyrimidin-2-yl)-N-(6-(1-(1-hydroxypropan-2-yl)-1H-tetrazol-5-yl)pyridin-2-yl)-6-methoxy-1,2,3,4-tetrahydroisoquinoline-7-carboxamide] | 0.00125 to 0.01 |
| COc1cc2c(cc1C(=O)Nc1cccc(-c3nnnn3[C@H](C)CO)n1)CN(C(=O)C(C)(C)O)CC2 [Example 115] | < 0.00125 |
| COc1cc2c(cc1C(=O)Nc1cccc(-c3nnnn3[C@H](C)CO)n1)CN(c1c(N)c(=O)c1=O)CC2 [Example 98, (R)-2-(2-amino-3,4-dioxocyclobut-1-en-1-yl)-N-(6-(1-(1-hydroxypropan-2-yl)-1H-tetrazol-5-yl)pyridin-2-yl)-6-methoxy-1,2,3,4-tetrahydroisoquinoline-7-carboxamide] | 0.00125 to 0.01 |
| C[C@H](CO)n1nnnc1-c1cccc(NC(=O)c2cc3c(cc2F)CCN(C(=O)c2ccccn2)C3)n1 [Example 133] | 0.01 to 0.1 |
| CC(C)n1cnnc1-c1cccc(NC(=O)c2cc3c(cn2)CCN(C(=O)OCC(F)(F)F)C3)n1 [Example 25, 2,2,2-trifluoroethyl 7-((6-(4-isopropyl-4H-1,2,4-triazol-3-yl)pyridin-2-yl)carbamoyl)-3,4-dihydro-2,6-naphthyridine-2(1H)-carboxylate] | 0.00125 to 0.01 |
| C[C@H](CO)n1nnnc1-c1cccc(NC(=O)c2cc3c(cc2F)CCN(C(=O)N2CCC2)C3)n1 [Example 135] | 0.00125 to 0.01 |
| C[C@H](CO)n1nnnc1-c1cccc(NC(=O)c2cc3c(cc2F)CCN(Cc2ccc(F)cc2)C3)n1 [Example 121] | 0.01 to 0.1 |
| CCOC(=O)N1CCc2cnc(C(=O)Nc3cccc(-c4nnnn4[C@H]4CCC[C@@H]4O)n3)cc2C1 [Example 145] | 0.01 to 0.1 |
| C[C@H](CO)n1cnnc1-c1cccc(NC(=O)c2cc3c(cn2)CCN(S(=O)(=O)C2CC2)C3)n1 [Example 38, (R)-6-(cyclopropylsulfonyl)-N-(6-(4-(1-hydroxypropan-2-yl)-4H-1,2,4-triazol-3-yl)pyridin-2-yl)-5,6,7,8-tetrahydro-2,6-naphthyridine-3-carboxamide] | 0.01 to 0.1 |
| CONC(=O)N1CCc2cc(OC)c(C(=O)Nc3cccc(-c4nnnn4[C@H](C)CO)n3)cc2C1 [Example 147] | < 0.00125 |
| COc1cc2c(cc1C(=O)Nc1cccc(-c3nnnn3[C@H](C)CO)n1)CN(C(=O)[C@](C)(O)C(F)(F)F)CC2 [Example 105] | < 0.00125 |
| COc1cc2c(cc1C(=O)Nc1cccc(-c3nnnn3[C@H](C)CO)n1)CN(C(=O)N1CCOCC1)CC2 [Example 131] | < 0.00125 |
| COCCC(=O)N1CCc2cc(OC)c(C(=O)Nc3cccc(-c4nnnn4[C@H](C)CO)n3)cc2C1 [Example 124] | < 0.00125 |
| C[C@H](CO)n1nnnc1-c1cccc(NC(=O)c2cc3c(cn2)CCN(C(=O)C(C)(C)CO)C3)n1 [Example 99] | 0.01 to 0.1 |
| COc1cc2c(cc1C(=O)Nc1cccc(-c3nnnn3[C@H](C)CO)n1)CN(CC(=O)N1CCCC1)CC2 [Example 132] | < 0.00125 |
| CC(C)n1cnnc1-c1cccc(NC(=O)c2cc3c(cc2F)CCN(C(=O)OC(C)(C)C)C3)n1 [Example 10, tert-butyl 6-fluoro-7-((6-(4-isopropyl-4H-1,2,4-triazol-3-yl)pyridin-2-yl)carbamoyl)-3,4-dihydroisoquinoline-2(1H)-carboxylate] | 0.00125 to 0.01 |
